Assay results taken from patent US9637495B2, “CGRP receptor antagonists” (Eli Lilly and Company, priority 2015, dated 2017).

target: T1, human CGRP receptor (Homo sapiens, UniProt O60894+Q16602); assay: Inhibition of cAMP production by CGRP receptor antagonists in SK-N-MC cells (HTRF); assay type: cell-based; conditions: SK-N-MC neuroblastoma cells, human CGRP 0.8 nM as agonist, Kb estimated as agonist-corrected IC50, mean ± SEM; read-out: Kb hCGRP
T1 construct: SK-N-MC neuroblastoma cells (ATCC® HTB-10™) that endogenously express the hCGRP receptor; host or cells: SK-N-MC neuroblastoma cells
Source text: Inhibition of cAMP Production by CGRP Receptor Antagonists
The hCGRP (human calcitonin gene-related peptide) receptor is functionally coupled to the Gαs proteins. Stimulation of hCGRP results in an increased synthesis of intracellular cAMP and can be blocked by the addition of receptor antagonists. Receptor activity is thus a reflection of the amount of cAMP present within cells which can be detected using standard in vitro technology.
Cultured SK-N-MC neuroblastoma cells (ATCC® HTB-10™) that endogenously express the hCGRP receptor are grown in Eagle's Minimum essential medium (HYCLONE™) supplemented with 10% heat-inactivated Fetal bovine serum (FBS; GIBCO®), Non-Essential Amino Acids (GIBCO®), 1 mM sodium pyruvate, 2 mM L-glutamine, 100 U/mL of penicillin, and 10 μg/mL of streptomycin to about 70% confluency. After providing fresh medium, the cells are incubated at 37° C. overnight. On the day of the assay, cells are detached using ACCUTASE® (MP Biomedicals), resuspended in assay buffer [Hank's Balanced Salt Solution/Dulbecco's phosphate-buffered saline with […] each of CaCl2 and MgCl2 mixed 1:2, 3.3 mM 4-(2-hydroxyethyl)-1-piperazineethanesulfonic acid, 0.03% bovine serum albumin, and 0.5 mM 1-methyl-3-isobutylxanthine (as inhibitor of […])], and seeded 3-5K/well into 384-well, poly-D-lysine coated white plates (BD Biosciences).
For dose-response studies, compounds are serially diluted 1:3 in dimethyl sulfoxide and then 1:10 into assay buffer. Human CGRP (0.8 nM; Bachem) as a receptor-specific agonist for the hCGRP receptor is mixed with diluted compound and added to the cells as the challenge stimulant at their EC80 concentrations.
The amount of intracellular cAMP is quantitated using HTRF technology (Cisbio) as per vendor instructions. Briefly, cAMP-d2 conjugate and anti-cAMP-cryptate conjugate in lysis buffer are incubated with the treated cells at room temperature for 90 min. The HTRF signal is immediately detected using an ENVISION® plate reader (Perkin-Elmer) to calculate the ratio of fluorescence at […]. The raw data are converted to cAMP amount (pmole/well) using a cAMP standard curve generated for each experiment. Relative EC50 values are calculated from the top-bottom range of the concentration response curve using a four-parameter logistic curve fitting program (ACTIVITYBASE® v5.3.1.22 or GENEDATA SCREENER® v12.0.4), and Kb values are estimated as agonist-corrected IC50 values using the equation: Kb=(IC50)/[1+([Agonist]/EC50)]. Estimated Kb values are reported as mean values±SEM, averaged from the number of runs (n).

T1 sequence (Q16602 23-461): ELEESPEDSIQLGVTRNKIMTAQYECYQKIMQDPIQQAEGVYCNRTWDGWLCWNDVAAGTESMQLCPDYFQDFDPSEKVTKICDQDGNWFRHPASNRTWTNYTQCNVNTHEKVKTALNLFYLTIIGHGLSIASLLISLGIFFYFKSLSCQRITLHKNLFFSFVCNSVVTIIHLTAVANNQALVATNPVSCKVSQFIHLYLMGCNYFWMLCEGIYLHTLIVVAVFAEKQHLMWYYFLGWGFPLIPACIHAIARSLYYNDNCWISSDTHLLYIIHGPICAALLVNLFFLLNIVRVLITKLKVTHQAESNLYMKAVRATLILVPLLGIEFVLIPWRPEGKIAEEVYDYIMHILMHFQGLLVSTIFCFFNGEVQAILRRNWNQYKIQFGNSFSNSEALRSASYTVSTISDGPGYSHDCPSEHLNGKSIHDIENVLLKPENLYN
T1 sequence (O60894 27-148): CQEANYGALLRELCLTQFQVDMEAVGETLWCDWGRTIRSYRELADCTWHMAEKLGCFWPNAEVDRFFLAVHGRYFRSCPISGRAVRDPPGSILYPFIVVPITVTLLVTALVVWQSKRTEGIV

Kb | SMILES
0.0465 ± 0.0097 nM | Cc1cc(CNC(=O)c2ccc([C@@H](C)[C@@]3(C)C(=O)Nc4ncccc43)cn2)cc(C)n1 [Example 1, N-[(2,6-dimethylpyridin-4-yl)methyl]-5-{(1R)-1-[(3R)-3-methyl-2-oxo-2,3-dihydro-1H-pyrrolo[2,3-b]pyridin-3-yl]ethyl}pyridine-2-carboxamide]
0.0366 ± 0.0154 nM | Cc1cc(CNC(=O)c2ccc([C@@H](C)[C@@]3(C)C(=O)Nc4ncccc43)cc2)cc(C)n1 [Example 2, N-[(2,6-dimethyl-4-pyridyl)methyl]-4-[(1R)-1-[(3R)-3-methyl-2-oxo-1H-pyrrolo[2,3-b]pyridin-3-yl]ethyl]benzamide]
0.0173 nM | CCc1cc(CNC(=O)c2ccc([C@@H](C)[C@@]3(C)C(=O)Nc4ncccc43)cc2)cc(C)n1 [Example 3, N-[(2-ethyl-6-methylpyridin-4-yl)methyl]-4-{(1R)-1-[(3R)-3-methyl-2-oxo-2,3-dihydro-1H-pyrrolo[2,3-b]pyridin-3-yl]ethyl}benzamide]
0.0266 nM | Cc1cc(CNC(=O)c2ccc([C@@H](C)[C@@]3(C)C(=O)Nc4ncccc43)cc2)cc(C2CC2)n1 [Example 4, N-[(2-cyclopropyl-6-methyl-4-pyridyl)methyl]-4-[(1R)-1-[(3R)-3-methyl-2-oxo-1H-pyrrolo[2,3-b]pyridin-3-yl]ethyl]benzamide]
0.00696 nM | Cc1cc(CNC(=O)c2ccc([C@@H](C)[C@@]3(C)C(=O)Nc4ncccc43)cc2)cc(C2CCC2)n1 [Example 5, N-[(2-cyclobutyl-6-methylpyridin-4-yl)methyl]-4-{(1R)-1-[(3R)-3-methyl-2-oxo-2,3-dihydro-1H-pyrrolo[2,3-b]pyridin-3-yl]ethyl}benzamide]
0.0182 nM | Cc1cc(CNC(=O)c2ccc([C@@H](C)[C@@]3(C)C(=O)Nc4ncccc43)cc2)cc(C2CCCC2)n1 [Example 6, N-[(2-cyclopentyl-6-methylpyridin-4-yl)methyl]-4-{(1R)-1-[(3R)-3-methyl-2-oxo-2,3-dihydro-1H-pyrrolo[2,3-b]pyridin-3-yl]ethyl}benzamide]
0.0977 ± 0.00276 nM | Cc1cc(C)nc(CNC(=O)c2ccc([C@@H](C)[C@@]3(C)C(=O)Nc4ncncc43)cc2)c1 [Example 7, N-[(4,6-dimethylpyridin-2-yl)methyl]-4-{(1R)-1-[(5R)-5-methyl-6-oxo-6,7-dihydro-5H-pyrrolo[2,3-d]pyrimidin-5-yl]ethyl}benzamide]
0.0245 nM | Cc1cc(CNC(=O)c2ccc([C@@H](C)[C@@]3(C)C(=O)Nc4ncccc43)cn2)cc(C2CC2)n1 [Example 9, N-[(2-cyclopropyl-6-methylpyridin-4-yl)methyl]-5-{(1R)-1-[(3R)-3-methyl-2-oxo-2,3-dihydro-1H-pyrrolo[2,3-b]pyridin-3-yl]ethyl}pyridine-2-carboxamide]
0.198 ± 0.0459 nM | Cc1cc(CNC(=O)c2ccc([C@@H](C)[C@@]3(C)C(=O)Nc4ncncc43)cn2)cc(C)n1 [Example 10, N-[(2,6-dimethyl-4-pyridyl)methyl]-5-[(1R)-1-[(5R)-5-methyl-6-oxo-7H-pyrrolo[2,3-d]pyrimidin-5-yl]ethyl]pyridine-2-carboxamide]
0.0404 nM | Cc1cc(C#N)nc(CNC(=O)c2ccc([C@@H](C)[C@@]3(C)C(=O)Nc4ncccc43)cc2)c1 [Example 11, N-[(6-cyano-4-methyl-2-pyridyl)methyl]-4-[(1R)-1-[(3R)-3-methyl-2-oxo-1H-pyrrolo[2,3-b]pyridin-3-yl]ethyl]benzamide]
0.0428 ± 0.013 nM | Cc1cc(C)nc(CNC(=O)c2ccc([C@@H](C)[C@@]3(C)C(=O)Nc4ncccc43)cc2)c1 [Example 12, N-[(4,6-dimethylpyridin-2-yl)methyl]-4-{(1R)-1-[(3R)-3-methyl-2-oxo-2,3-dihydro-1H-pyrrolo[2,3-]pyridin-3-yl]ethyl}benzamide]
0.0453 ± 0.00153 nM | CCc1cc(CNC(=O)c2ccc([C@@H](C)[C@@]3(C)C(=O)Nc4ncccc43)cn2)cc(C)n1 [Example 13, N-[(2-ethyl-6-methylpyridin-4-yl)methyl]-5-{(1R)-1-[(3R)-3-methyl-2-oxo-2,3-dihydro-1H-pyrrolo[2,3-b]pyridin-3-yl]ethyl}pyridine-2-carboxamide]
0.026 nM | Cc1cc(CNC(=O)c2ccc([C@@H](C)[C@@]3(C)C(=O)Nc4ncccc43)cc2)cc(C(C)C)n1 [Example 14, 4-{(1R)-1-[(3R)-3-methyl-2-oxo-2,3-dihydro-1H-pyrrolo[2,3-b]pyridin-3-yl]ethyl}-N-{[2-methyl-6-(propan-2-yl)pyridin-4-yl]methyl}benzamide]
0.171 ± 0.0339 nM | Cc1cc(C)nc(CNC(=O)c2ccc([C@@H](C)[C@@]3(C)C(=O)Nc4ncccc43)cn2)c1 [Example 15, N-[(4,6-dimethylpyridin-2-yl)methyl]-5-{(1R)-1-[(3R)-3-methyl-2-oxo-2,3-dihydro-1H-pyrrolo[2,3-b]pyridin-3-yl]ethyl}pyridine-2-carboxamide]
0.813 nM | Cc1cc(CNC(=O)c2ccc([C@@H](C)[C@@]3(C)C(=O)Nc4ncccc43)cc2)cc(C#N)n1 [Example 16, N-[(2-cyano-6-methylpyridin-4-yl)methyl]-4-{(1R)-1-[(3R)-3-methyl-2-oxo-2,3-dihydro-1H-pyrrolo[2,3-b]pyridin-3-yl]ethyl}benzamide]

system: CGRP receptor; assay: Capsaicin-induced dermal blood flow (laser Doppler imaging) in non-human primates; assay type: in vivo; conditions: 3 mg/kg orally, 90 min prior to capsaicin, cynomolgus NHP, compared to vehicle, p<0.008
Source text: Capsaicin-induced dermal blood flow (DBF) is used as a target engagement biomarker to assess CGRP receptor activity in nonhuman primates (NHPs). Methods are adapted from earlier published procedures [Hershey et al., Regulatory Peptides, Volume 127, Issue 1-3, pp. 71-77, 2005].
Animal studies may be performed under protocols approved by the Covance Institutional Animal Care and Use Committee. Cynomolgus NHPs may be used given the close homology between NHP and human CGRP receptor. The study population may include healthy, CGRP antagonist naive cynomolgus NHP males weighing ˜3-4 kg.
Cynomolgus NHPs are enrolled in the study based on prescreening for capsaicin responsiveness. […] NHPs are used in a cross over design in which all NHPs received all doses after a two week wash-out period. Total n=10 NHPs per group.
NHPs each receive vehicle, 3, 10 and 30 mg/kg of the CGRP receptor antagonist Example 1 administered orally (10% Acacia w/v/0.05% Antifoam 1510-US emulsion v/v/in purified water) 90 min prior to the capsaicin administration in the laser Doppler imaging (LDI) experiment.
Animals are fasted overnight prior to each capsaicin challenge. On the day of the experiment, the NHPs are anesthetized with 1% Isoflurane for approximately 30 min prior to scanning. The NHPs are placed in a quiet, temperature-controlled room supine on a warm small surgical blanket and the shaved arm is placed on a heating pad under the laser head. Three neoprene O-rings (size=8 mm ID) are placed on the NHP forearm, approximately 1 cm apart. During a 30-minute stabilization period, preliminary scans are obtained to confirm correct positioning of the O-rings. […]
LDI repeat scans are analyzed using Moor software v.5.3 (Moor Instruments, Wilmington, Del.) by region of interest signal analysis, and Microsoft Excel worksheets are used for averaging the signal from the regions of interest at a given time point. […] Analyzed data is entered into Graphpad PRISM® 4.0 for graphing and a repeated measurement mixed-effect model in SAS® 9.1 is used for statistical analysis. Data is expressed as mean+/−SEM.

SMILES | group mean inhibition of capsaicin-induced dermal blood flow increase
Cc1cc(CNC(=O)c2ccc([C@@H](C)[C@@]3(C)C(=O)Nc4ncccc43)cn2)cc(C)n1 [Example 1, N-[(2,6-dimethylpyridin-4-yl)methyl]-5-{(1R)-1-[(3R)-3-methyl-2-oxo-2,3-dihydro-1H-pyrrolo[2,3-b]pyridin-3-yl]ethyl}pyridine-2-carboxamide] | 32.1%

same assay, conditions: 10 mg/kg orally, 90 min prior to capsaicin, cynomolgus NHP, compared to vehicle, p<0.0004

SMILES | group mean inhibition of capsaicin-induced dermal blood flow increase
Cc1cc(CNC(=O)c2ccc([C@@H](C)[C@@]3(C)C(=O)Nc4ncccc43)cn2)cc(C)n1 [Example 1, N-[(2,6-dimethylpyridin-4-yl)methyl]-5-{(1R)-1-[(3R)-3-methyl-2-oxo-2,3-dihydro-1H-pyrrolo[2,3-b]pyridin-3-yl]ethyl}pyridine-2-carboxamide] | 46.1%

same assay, conditions: 30 mg/kg orally, 90 min prior to capsaicin, cynomolgus NHP, compared to vehicle, p<0.00002

SMILES | group mean inhibition of capsaicin-induced dermal blood flow increase
Cc1cc(CNC(=O)c2ccc([C@@H](C)[C@@]3(C)C(=O)Nc4ncccc43)cn2)cc(C)n1 [Example 1, N-[(2,6-dimethylpyridin-4-yl)methyl]-5-{(1R)-1-[(3R)-3-methyl-2-oxo-2,3-dihydro-1H-pyrrolo[2,3-b]pyridin-3-yl]ethyl}pyridine-2-carboxamide] | 58.8%
